Experimental data: patent publication US12427168B2, “Extracellular vesicle and use thereof in skin products” (EV CELL BIOTECH (GUANGZHOU) CO., LTD., priority 2020, dated 2025)

Legend:
mice [1] = test: Wound healing of 1 cm×1 cm full-thickness wound; format: in vivo; conditions: for effect on promotion of wound healing by IEVs: with IEVs, FIG. 15B
Description: A 1 cm×1 cm full-thickness wound was made in mice, and the effect of systemic injections of MSCs and IEVs on wound healing was examined.

[2] = system: skin mesenchymal stem cells; test: Uptake of IEVs by skin mesenchymal stem cells, cell smear; format: cell-based; conditions: FIG. 13D
Wnt signaling pathways = test: Skin excretion of IEVs under Wnt agonist or inhibitor (Western Blot, immunofluorescence); format: in vivo; conditions: Licl 10 mg/kg or XAV939 1 mg/kg intraperitoneally for 3 days, FIGS. 13A-B
active-β-catenin = test: Active-β-catenin intensity in the skin, immunofluorescence; format: in vivo; conditions: with IEVs, FIG. 13E
mice [3] = test: Hair regrowth with IEVs alone or combined with anti-aging substances; format: in vivo; conditions: combined with IEVs, FIG. 12
Description: After systemic injection of PKH26-IEV in C57 mice, rapamycin (5 mg/kg), metformin (100 mg/kg), dadatinib (5 mg/kg) and resveratrol (10 mg/kg) were intraperitoneally injected for 7 days, respectively.

[Cl-].[Li+] [Licl]
IEVs accumulation in the wound site (mice [1]; immunofluorescence, FIG. 15C): significantly increased IEVs accumulation in the wound site | effect on promotion of wound healing by IEVs (mice [1]): accelerated the promotion of wound healing by IEVs | effect on uptake of IEVs by skin mesenchymal stem cells [2]: affected | effect on skin excretion of IEVs (Wnt signaling pathways): significant increase in skin excretion of IEVs

Oc1nc(-c2ccc(C(F)(F)F)cc2)nc2c1CSCC2 [XAV939]
effect on promotion of wound healing by IEVs (mice [1]): significantly attenuated the promotion of wound healing by IEVs | effect on IEV-stimulated activation of Wnt signaling pathways in the skin (active-β-catenin): attenuated this activation process | effect on uptake of IEVs by skin mesenchymal stem cells [2]: affected

CN(C)C(=N)N=C(N)N [metformin]
effect of the combination on hair regrowth promotion by IEVs (mice [3]): promoted the promotion effects of hair regrowth by IEVs

Oc1ccc(C=Cc2cc(O)cc(O)c2)cc1 [resveratrol]
effect of the combination on hair regrowth promotion by IEVs (mice [3]): promoted the promotion effects of hair regrowth by IEVs
